Test results taken from patent US20130230543A1, “ENGINEERED POLYPEPTIDE CONJUGATES AND METHODS FOR MAKING THEREOF USING […]” (priority 2010, published 2013).
Where two headings read alike, the source gives them in different places.

Experiments:
Type in all cases: cell-based
A431 cells = test: In vitro cytotoxicity assay, CellTiter-Glo, 96 hours after treatment (mAb2 conjugates and free compounds); settings: Homo sapiens, A-431, 96 h, read-out: A431 Antibody IC50 (nM)
Method: (§1) In vitro cytotoxicity assays were carried out using various antibodies, payloads (i.e., agent moieties), and amine donor units. For mAb2 (a chimeric IgG1 antibody), target expressing (A431, OVCAR3, BxPC3 and HT-29) or non-expressing (SW620) cells were seeded on white walled clear bottom plates at 2000 cells/well for 24 hours before treatment. […] Cell viability was determined by CellTiter-Glo® Luminescent Cell Viability Assay 96 (Promega, Madison Wis.) 96 hours after treatment. […] IC50 was calculated by Prism software.

SW620 cells = test: In vitro cytotoxicity assay, CellTiter-Glo, 96 hours after treatment, target non-expressing cells; settings: read-out: SW620 Antibody IC50
Method: as §1

HT-29 cells = test: In vitro cytotoxicity assay, CellTiter-Glo, 96 hours after treatment (mAb2 conjugates and free compounds); settings: Homo sapiens, HT-29, target expressing, column also holds free compounds, read-out: HT-29 Antibody IC50
Method: as §1

BxPC3 cells = test: as above; settings: BxPC3, target expressing, column also holds free compounds, read-out: BxPC3 Antibody IC50
Method: as §1

| Compound | IC50 (A431 cells) [nM] | IC50 (SW620 cells; Homo sapiens, SW-620, values only for free compounds) [nM] | IC50 (HT-29 cells) [nM] | IC50 (BxPC3 cells) [nM] | IC50 (SW620 cells; values only for free compounds) [nM] |
| --- | --- | --- | --- | --- | --- |
| CO[C@H]1/C=C\C=C(/C)C(=O)NC2=CC(=O)C(NCCCCNC(=O)[C@H](CCCCN)NC(C)=O)=C(C[C@@H](C)C[C@H](OC)[C@H](O)[C@@H](C)/C=C(\C)[C@@H]1OC(N)=O)C2=O [Sample 26, AcLys-Putrescinyl-Geldanamycin] | > 1000 | > 1000 | – | – | – |
| CC[C@H](C)[C@@H](C(CC(=O)N1CCCC1C(OC)[C@@H](C)C(=O)NC(Cc1ccccc1)c1nccs1)OC)N(C)C(=O)C(NC(=O)[C@H](C(C)C)N(C)C(=O)CNC(=O)C(C)CCCCN)C(C)C (stereo partly drawn) [Sample 29, AcLysGly-MMAD] | 8.42 | – | 5.14 | – | – |
| VC-PABC-MMAF [Sample 24] | – | – | – | 427 | 483 |
